According to publication PMC6198068, “Discovery of a Novel Nav1.7 Inhibitor From Cyriopagopus albostriatus Venom With Potent Analgesic Efficacy” (Frontiers in Pharmacology, 2018):
Read-outs that look alike come from different tables or passages of the source. Where a SMILES comes first, the peptide text is derived from it. Bridges are numbered along the chain shown (N, C = ends).

Assays:
[1] = Adverse effects at the doses used in the mouse pain models; format: in vivo, ICR mice; conditions: dose of Ca2a used in this study (50–200 μg/kg i.p.)
Experimental: (§1) The ICR mice (18–22 g) used in this study were purchased from the Experimental Animal Center of SLac-kinda (Changsha, China). The animals were maintained at 20–25°C and freely allowed to standard rodent chow and water ad libitum. Ethical approval for in vivo experiments in animals was approved by the Animal Care and Use Committee (ACUC) at the Hunan Province Animal Management Office (HPAMO).

hot plate test in mice = test: Hot plate test; format: in vivo, ICR mice; conditions: 55 ± 1°C, 30 min after injection, control 10.6 ± 1.1 s, mean ± SEM, n = 6–8
Experimental: as §1
According to a previous method ([Meng et al., 2017]), a hot plate apparatus (model YLS-21A, Jinan, China) maintained at 55 ± 1°C, was used to measure the pain threshold of mice subjected to a thermal stimulus. Each female mouse was placed on hot plate to observe its pain response (hind-paw-licking or jumping) acted as its own control. The mice whose latent response times were shorter than 5 s or longer than 30 s were excluded from the test.

Nav1.8 = test: Whole-cell patch-clamp, Nav1.8 in ND7/23 cells; format: cell-based; conditions: up to 10 μM, depolarization to +20 mV
Text: (§2) The cDNA genes encoding rat Nav1.4 and human Nav1.7 were subcloned into vectors pRGB4 and pcDNA3.1-mod, respectively. Mutations of rNav1.4 (N655D, Q657E, and N655D/Q657E) and hNav1.7 (D816N, E818Q, and D816N/E818Q) were constructed using the Gene Tailor Site-Directed Mutagenesis system (Invitrogen, Carlsbad, CA, United States), according to the manufacturer’s instructions. Nav1.2–Nav1.7 and mutant plasmids together with eGFP were transiently transfected into HEK293T cells while Nav1.8 together with eGFP was transiently transfected into ND7/23 cells by Lipofectamine 2000 (Invitrogen, Carlsbad, CA, United States). Additionally, plasmids β1- and β2-eGFP encoding the human β1 and β2 subunits, respectively, were co-transfected with those encoding WT Nav1.7 and Nav1.7 mutations in HEK293T cells. […] Cells with green fluorescent protein fluorescence were selected for whole-cell patch-clamp recordings 24 h after transfection.
(§3) Whole-cell patch-clamp recordings were performed at room temperature (20–25°C) using an EPC 10 USB Patch Clamp Amplifier (HEKA, Elektronik, Lambrecht, Germany). […] Data was analyzed by software Igo Pro 6.10A (WaveMetrics, Lake Oswego, OR, United States), SigmaPlot 10.0 (Sigma-Aldrich, St. Louis, MO, United States), OriginPro 8 (OriginLab Corp., Northampton, MA, United States), and GraphPad Prism 5 (GraphPad Software, San Diego, CA, United States). […]

[2] = tested on: acetic acid-induced writhing in mice; format: in vivo, ICR mice; conditions: counted 30 min, control 27.3 ± 3.3, mean ± SEM, n = 6–8
Experimental: as §1
The abdominal writhing responses were counted for 30 min continuously.

Nav1.7/D816N = biological target: T1, Nav1.7/D816N (Homo sapiens, UniProt Q15858, D827N); test: Time course of Nav1.7/D816N inhibition and recovery upon washing; format: cell-based; conditions: 1 μM, n = 4
T1 construct: expressed in transfected cells; host or cells: HEK293T
Text: as §2, §3

Nav1.7 = biological target: T2, Nav1.7 (Homo sapiens, UniProt Q15858); test: Steady-state fast inactivation and fast inactivation time constants of Nav1.7; format: cell-based; conditions: 0.2 μM
T2 construct: expressed in transfected cells; host or cells: HEK293T
Text: as §2, with “States).” for “States). Additionally, plasmids β1- and β2-eGFP encoding the human β1 and β2 subunits, respectively, were co-transfected with those encoding WT Nav1.7 and Nav1.7 mutations in HEK293T cells.”
as §3
Fast inactivation time constants were calculated by fitting current decay traces with a single exponential function using the I–V protocol described above. […]

T2 sequence (O60939 30-215): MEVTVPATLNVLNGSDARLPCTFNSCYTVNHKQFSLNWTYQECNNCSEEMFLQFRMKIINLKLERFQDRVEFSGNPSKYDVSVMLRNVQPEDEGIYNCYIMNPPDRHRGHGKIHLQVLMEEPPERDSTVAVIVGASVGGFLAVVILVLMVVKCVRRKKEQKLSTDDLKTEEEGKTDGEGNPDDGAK
T2 sequence (Q15858 other isoform, or with tags, fused parts or gaps): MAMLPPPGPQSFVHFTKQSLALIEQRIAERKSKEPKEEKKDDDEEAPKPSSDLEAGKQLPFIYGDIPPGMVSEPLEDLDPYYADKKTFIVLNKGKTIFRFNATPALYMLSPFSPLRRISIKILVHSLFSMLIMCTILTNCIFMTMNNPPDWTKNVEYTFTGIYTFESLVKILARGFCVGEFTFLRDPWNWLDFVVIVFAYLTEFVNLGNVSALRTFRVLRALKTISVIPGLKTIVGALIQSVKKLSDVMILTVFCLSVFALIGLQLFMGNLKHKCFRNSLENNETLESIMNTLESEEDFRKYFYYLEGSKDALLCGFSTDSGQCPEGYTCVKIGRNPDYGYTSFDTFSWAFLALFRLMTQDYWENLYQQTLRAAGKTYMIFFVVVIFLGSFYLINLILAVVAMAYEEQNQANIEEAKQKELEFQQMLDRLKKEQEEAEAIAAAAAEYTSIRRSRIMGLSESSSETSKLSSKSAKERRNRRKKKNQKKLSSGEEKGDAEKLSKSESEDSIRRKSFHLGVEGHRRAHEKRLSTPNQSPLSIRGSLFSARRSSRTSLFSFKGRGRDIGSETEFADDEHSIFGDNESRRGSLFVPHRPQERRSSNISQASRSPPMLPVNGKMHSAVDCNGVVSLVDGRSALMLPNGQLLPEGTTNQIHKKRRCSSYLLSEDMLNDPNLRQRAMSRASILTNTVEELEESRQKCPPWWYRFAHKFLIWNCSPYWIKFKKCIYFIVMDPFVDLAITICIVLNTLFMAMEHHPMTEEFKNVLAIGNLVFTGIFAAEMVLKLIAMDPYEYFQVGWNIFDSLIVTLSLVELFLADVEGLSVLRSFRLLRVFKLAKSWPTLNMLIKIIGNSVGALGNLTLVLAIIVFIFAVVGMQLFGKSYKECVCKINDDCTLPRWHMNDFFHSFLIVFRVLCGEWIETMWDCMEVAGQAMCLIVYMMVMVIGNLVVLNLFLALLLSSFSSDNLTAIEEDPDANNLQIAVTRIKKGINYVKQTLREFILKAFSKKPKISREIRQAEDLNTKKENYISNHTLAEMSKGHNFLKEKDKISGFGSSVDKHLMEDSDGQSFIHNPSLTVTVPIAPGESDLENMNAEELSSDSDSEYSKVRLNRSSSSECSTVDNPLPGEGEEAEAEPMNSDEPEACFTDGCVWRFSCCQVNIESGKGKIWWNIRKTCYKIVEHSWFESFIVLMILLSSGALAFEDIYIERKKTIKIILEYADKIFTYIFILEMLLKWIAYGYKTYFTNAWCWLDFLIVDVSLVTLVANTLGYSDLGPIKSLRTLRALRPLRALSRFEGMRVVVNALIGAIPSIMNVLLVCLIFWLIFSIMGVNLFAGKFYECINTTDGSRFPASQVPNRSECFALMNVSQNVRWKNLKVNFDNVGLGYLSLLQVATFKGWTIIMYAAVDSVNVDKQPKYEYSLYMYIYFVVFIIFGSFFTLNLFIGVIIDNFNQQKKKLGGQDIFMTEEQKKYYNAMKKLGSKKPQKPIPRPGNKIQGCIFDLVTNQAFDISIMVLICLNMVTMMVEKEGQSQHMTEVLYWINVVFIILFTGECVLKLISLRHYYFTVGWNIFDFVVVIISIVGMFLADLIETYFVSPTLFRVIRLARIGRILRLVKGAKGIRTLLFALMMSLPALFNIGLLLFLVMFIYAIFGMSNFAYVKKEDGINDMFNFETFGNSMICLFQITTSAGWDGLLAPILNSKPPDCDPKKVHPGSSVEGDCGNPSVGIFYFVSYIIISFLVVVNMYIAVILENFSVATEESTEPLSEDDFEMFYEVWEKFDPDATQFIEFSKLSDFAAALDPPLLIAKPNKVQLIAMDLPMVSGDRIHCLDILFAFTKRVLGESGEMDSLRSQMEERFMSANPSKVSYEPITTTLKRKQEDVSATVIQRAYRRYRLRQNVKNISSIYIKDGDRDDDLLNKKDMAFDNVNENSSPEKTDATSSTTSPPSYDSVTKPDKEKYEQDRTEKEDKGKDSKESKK
T2 sequence (Q07699 19-218, further chain): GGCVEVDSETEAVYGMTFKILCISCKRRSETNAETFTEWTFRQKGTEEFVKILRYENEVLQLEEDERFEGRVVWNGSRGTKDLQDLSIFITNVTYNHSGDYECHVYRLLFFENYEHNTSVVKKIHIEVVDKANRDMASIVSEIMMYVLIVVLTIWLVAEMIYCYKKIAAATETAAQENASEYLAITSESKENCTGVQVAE
T1 sequence (O60939 30-215): as the sequence (O60939 30-215) above
T1 sequence (Q07699 19-218, further chain): as the sequence (Q07699 19-218, further chain) above
T1 sequence (Q15858 other isoform, or with tags, fused parts or gaps D816N): as the sequence (Q15858 other isoform, or with tags, fused parts or gaps) above, with D816N counted along it

## CC(C)C[C@H](NC(=O)[C@H](CC(=O)O)NC(=O)[C@H](Cc1ccc(O)cc1)NC(=O)[C@H](CCCCN)NC(=O)[C@@H]1CSSC[C@@H]2NC(=O)[C@H](CCCCN)NC(=O)[C@H](CC(=O)O)NC(=O)[C@H](CC(N)=O)NC(=O)[C@H](CO)NC(=O)[C@@H]3CCCN3C(=O)[C@H](CC(N)=O)NC(=O)[C@@H]3CSSC[C@H](NC(=O)[C@H](C(C)C)NC(=O)[C@H](CC(C)C)NC(=O)[C@H](CO)NC(=O)[C@H](CO)NC(=O)[C@H](CO)NC(=O)[C@H](CCCCN)NC(=O)[C@H](CSSC[C@H](NC(=O)[C@H](C)N)C(=O)N[C@@H](CC(C)C)C(=O)NCC(=O)N[C@@H](Cc4ccccc4)C(=O)NCC(=O)N[C@@H](CCC(=O)O)C(=O)N[C@@H](CCCCN)C(=O)N3)NC2=O)C(=O)N[C@@H](CO)C(=O)N[C@@H](CCC(N)=O)C(=O)N[C@@H](CCCCN)C(=O)N[C@@H](Cc2c[nH]cn2)C(=O)N[C@@H](CCCCN)C(=O)N[C@@H](Cc2c[nH]c3ccccc23)C(=O)N1)C(=O)O [Ca2a] (H-ACLGFGEKCNPSNDKCCKSSSLVCSQKHKWCKYDL-OH; disulfide 2-17, 9-24, 16-31 (inferred); N-terminus and C-terminus assumed)
[1]
  adverse effects: does not cause significant adverse effects
Hot plate test in mice; 50 μg/kg i.p.
  latency time, hot plate: 12.9 ± 0.8 s
Hot plate test in mice; 100 μg/kg i.p.
  latency time, hot plate: 15.4 ± 1.2 s
Hot plate test in mice; 200 μg/kg i.p.
  latency time, hot plate: 18.1 ± 1.6 s
Nav1.8
  inhibitory effect on Nav1.8 currents: no inhibitory effects
[2]; 50 μg/kg i.p. 15 min prior to 0.8% acetic acid
  writhing numbers: 15.8 ± 2.4
[2]; 100 μg/kg i.p. 15 min prior to 0.8% acetic acid
  writhing numbers: 10.5 ± 2.8
[2]; 200 μg/kg i.p. 15 min prior to 0.8% acetic acid
  writhing numbers: 5.4 ± 2.2
Nav1.7/D816N; extended washout
  recovery of Nav1.7/D816N current on washout: did not recover
Nav1.7/D816N
  τon, Nav1.7/D816N: 18.4 ± 1.3 s
Nav1.7; between −15 and 10 mV, P > 0.05, two-way ANOVA, n = 6–11 cells
  fast inactivation time constants of Nav1.7: did not alter the inactivation time constants
Nav1.7; control −70.2 ± 0.8 mV, 500-ms prepulse, mean ± SEM, n = 10
  half-inactivation voltage of Nav1.7 (steady-state fast inactivation): −70.7 ± 1.1 mV
